Experimental findings from ChEMBL document CHEMBL1201862, “PubChem BioAssay data set” (2004) are described below.

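How tested: cells in 96-well plates exposed to compound for 48 hours at five concentrations. Abbreviation: GI50, concentration required for 50% inhibition of growth.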 Activity calls are given as the source filed them. Rule as the data show it: active = GI50 up to about 1.1 µM and inactive = higher.

Test systems include ACHN; CAKI-1; CCRF-CEM; HCT-116; HOP-62; HT-29; K562; LOX IMVI; MDA-N; MOLT-4; NCI-H23; NCI/ADR-RES; OVCAR-3; OVCAR-4; OVCAR-8; RPMI-8226; SF-268; SF-295; T47D; SK-MEL-2.
Common to all, as to assay: growth of human tumour cells (NCI), 48 h

As for `CN(C(=O)Cc1ccccc1)n1cn[n+](CC(=O)OC(C)(C)C)c1`, the GI50 in the assay on ACHN, with CAKI-1, with CCRF-CEM, in the assay with HCT-116, in the assay with HOP-62 and in the assay on HT-29 was > 10 µM (inactive) in each case. Besides, the GI50 with K562, with LOX IMVI, in the assay on MDA-N, in the assay with MOLT-4, in the assay on NCI-H23 and with NCI/ADR-RES was > 10 µM (inactive) throughout. Besides, the GI50 is > 10 µM (inactive) in the assay with OVCAR-3; > 10 µM (inactive) in the assay with OVCAR-4; > 10 µM (inactive) in the assay on OVCAR-8; 0.00119 µM (active) in the assay with RPMI-8226; > 10 µM (inactive) in the assay on SF-268; > 10 µM (inactive) with SF-295. Further, in the assay with T47D, the GI50 was > 10 µM (inactive).

For `CC(C)N/C(=N\C#N)NS(=O)(=O)c1cnccc1Nc1ccc(Cl)cc1`, the GI50 in the assay with ACHN, in the assay with CAKI-1, in the assay with CCRF-CEM, in the assay on HCT-116, in the assay with HOP-62 and in the assay with HT-29 was > 100 µM (inactive) in each case. For the same compound, the GI50 in the assay on K562, with MDA-N, with MOLT-4, with NCI-H23, with NCI/ADR-RES and in the assay on OVCAR-3 was > 100 µM (inactive) throughout. Moreover, the GI50 with OVCAR-4, in the assay on OVCAR-8, with RPMI-8226, with SF-268, in the assay on SF-295 and in the assay with SK-MEL-2 was > 100 µM (inactive) throughout. In addition, the GI50 in the assay on T47D was > 100 µM (inactive).

Turning to `COc1ccc(/C=C/C(=O)c2cc(CN(C)C)c(O)c(CN(C)C)c2)cc1`, the GI50 in the assay with ACHN was 27.9 µM (inactive); in the assay on CAKI-1 it was 47.5 µM (inactive); in the assay on CCRF-CEM it was 35.2 µM (inactive); in the assay on HCT-116, 24.2 µM (inactive); with HOP-62, 21.8 µM (inactive); in the assay on HT-29, 27.7 µM (inactive). In addition, the GI50 in the assay with K562 is 26.7 µM (inactive); with LOX IMVI, 14.2 µM (inactive); in the assay with MDA-N, 21.2 µM (inactive); in the assay with MOLT-4, 28.2 µM (inactive); with NCI-H23, 46.9 µM (inactive); in the assay on NCI/ADR-RES, 33.1 µM (inactive). Moreover, the GI50 in the assay with OVCAR-3 is 18 µM (inactive); in the assay on OVCAR-8 it was 29.8 µM (inactive); in the assay on RPMI-8226, 21.8 µM (inactive); in the assay with SF-268 it was 75.9 µM (inactive); in the assay on SF-295, 26.8 µM (inactive); in the assay on T47D it was 19.6 µM (inactive).

On to `CCCNC(=S)N/N=C/c1cccc(C)n1`, for which the GI50 was 13.4 µM (inactive) with ACHN; 2.69 µM (inactive) with CCRF-CEM; 7.18 µM (inactive) in the assay with HCT-116; 25.6 µM (inactive) in the assay with HOP-62; 18 µM (inactive) with HT-29; 31.7 µM (inactive) with K562. The GI50 was 16.6 µM (inactive) with LOX IMVI; 30.6 µM (inactive) in the assay with MDA-N; 16.8 µM (inactive) in the assay on MOLT-4; 28.9 µM (inactive) in the assay on NCI-H23; 31 µM (inactive) in the assay with NCI/ADR-RES; 2.91 µM (inactive) in the assay on OVCAR-3. The GI50 is 39.4 µM (inactive) in the assay on OVCAR-4; 28 µM (inactive) in the assay on OVCAR-8; 24.3 µM (inactive) with RPMI-8226; 32.8 µM (inactive) with SF-295; 1.09 µM (active) in the assay with SK-MEL-2; 3.43 µM (inactive) with T47D.

For the compound `C=CC1(c2ccc3ccccc3c2)OCC(CC)(CC)CO1`, the GI50 with ACHN was 20.5 µM (inactive); in the assay on CCRF-CEM, 20.3 µM (inactive); in the assay on HCT-116, 21.3 µM (inactive); in the assay with HOP-62 it was 27.4 µM (inactive); in the assay on HT-29 it was 20.3 µM (inactive); with K562, 25.1 µM (inactive). Also, the GI50 in the assay with LOX IMVI was 18.4 µM (inactive); in the assay with MDA-N, 29.3 µM (inactive); in the assay with MOLT-4 it was 18.2 µM (inactive); with NCI-H23 it was 20.1 µM (inactive); in the assay with NCI/ADR-RES it was 30.1 µM (inactive); in the assay with OVCAR-3, 25.2 µM (inactive). The GI50 in the assay on OVCAR-4 was 41 µM (inactive); in the assay on OVCAR-8, 48.3 µM (inactive); in the assay with RPMI-8226, 57.7 µM (inactive); with SF-268 it was 33.3 µM (inactive); in the assay with SF-295 it was 25.8 µM (inactive); in the assay with SK-MEL-2, 17.7 µM (inactive). In the assay with T47D, the GI50 was 22.5 µM (inactive).

For `COC1(OC)CC(CO)(COc2cc(Cl)nc(N)n2)C1`, the GI50 in the assay with ACHN, in the assay on CAKI-1, in the assay on CCRF-CEM, with HCT-116, in the assay on HOP-62 and with HT-29 was > 100 µM (inactive) throughout. The GI50 in the assay with K562, in the assay with LOX IMVI, with MDA-N, with MOLT-4, in the assay with NCI-H23 and in the assay with NCI/ADR-RES was > 100 µM (inactive) in each case. Further, the GI50 in the assay on OVCAR-3, in the assay on OVCAR-4, in the assay with OVCAR-8, with SF-268, in the assay on SF-295 and in the assay on SK-MEL-2 was > 100 µM (inactive) in each case. In the assay with T47D, the GI50 was > 100 µM (inactive).

In the case of `CC1C(c2cc(C(C)(C)C)c(O)c(C(C)(C)C)c2)c2cc3c(cc2OC1N1CCOCC1)OCO3` (stereo not drawn), the GI50 in the assay on ACHN is 7.69 µM (inactive); in the assay with CCRF-CEM, > 100 µM (inactive); in the assay on HCT-116, 13.7 µM (inactive); in the assay on HOP-62, 16.9 µM (inactive); in the assay with HT-29 it was 19.2 µM (inactive); with K562, 27.1 µM (inactive). The GI50 was 20.3 µM (inactive) in the assay with LOX IMVI; 26.9 µM (inactive) in the assay on MDA-N; > 100 µM (inactive) with MOLT-4; 28.1 µM (inactive) in the assay on NCI-H23; 27.4 µM (inactive) in the assay on NCI/ADR-RES; 15.8 µM (inactive) in the assay on OVCAR-3. For the same compound, the GI50 in the assay on OVCAR-8 is 19.1 µM (inactive); with RPMI-8226 it was 26.9 µM (inactive); in the assay on SF-268 it was 17.4 µM (inactive); in the assay with SF-295, 15.3 µM (inactive); with SK-MEL-2, 23.7 µM (inactive); with T47D, 21.4 µM (inactive).

Turning to `CC(=O)OCCn1cnc2nc(Nc3ccccc3)nc(Cl)c21`, the GI50 is 42 µM (inactive) in the assay on ACHN; 69.2 µM (inactive) in the assay with CCRF-CEM; 71.1 µM (inactive) with HCT-116; > 100 µM (inactive) in the assay on HOP-62; > 100 µM (inactive) in the assay on HT-29; 49 µM (inactive) with K562. For the same compound, the GI50 with LOX IMVI is 44.4 µM (inactive); in the assay on MDA-N it was 36.1 µM (inactive); in the assay with MOLT-4, 54.2 µM (inactive); with NCI-H23 it was > 100 µM (inactive); in the assay on NCI/ADR-RES, 95.3 µM (inactive); in the assay on OVCAR-3, > 100 µM (inactive). The GI50 was 43.3 µM (inactive) with OVCAR-4; > 100 µM (inactive) in the assay on OVCAR-8; 89.5 µM (inactive) in the assay with RPMI-8226; > 100 µM (inactive) with SF-268; 82 µM (inactive) in the assay on SF-295; 40.7 µM (inactive) in the assay with T47D.
